The values that follow come from US20230077362A1 (CORTEVA AGRISCIENCE LLC, priority 2019, published 2023).

Assay [1] concerns Beet Armyworm (Spodoptera exigua) ("BAW"), second instar larvae. Description: Bioassay on beet armyworm (BAW), 128-well diet tray assay. The assay is classed as in vivo. Particulars: Spodoptera exigua, read-out: BAW (Biological Results, rating). The procedure, abridged: (§1)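 Read-out: percent larval mortality per well, averaged over 8 wells. Incubation 25° C., 14:10 L:D photoperiod, 5–7 days, trays sealed with clear adhesive cover.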

Assay [2] concerns Cabbage Looper (Trichoplusia ni) ("CL"), second instar larvae. Description: Bioassay on cabbage looper (CL), 128-well diet tray assay. The assay is classed as in vivo. Particulars: Trichoplusia ni, read-out: CL (Biological Results, rating). The procedure, abridged: as §1

Regarding `COC(C)c1ccc(C)cc1N1C(=O)CS/C1=N\C(=O)Nc1ccc(-c2ncn(-c3ccc(C(F)(F)F)cc3)n2)cc1F` (stereo not shown) [Compound J62, (Z)-1-(2-Fluoro-4-(1-(4-(trifluoromethyl)phenyl)-1H-1,2,4-triazol-3-yl)phenyl)-3-(3-(2-(1-methoxyethyl)-5-methylphenyl)-4-oxothiazolidin-2-ylidene)urea], the pest or weed control at 50 µg/cm2 in assay [1] and in assay [2] was 50 to 100% each time.
On to `Cc1ccc(OCC(F)(F)F)c(N2C(=O)CS/C2=N\C(=O)Nc2ccc(-c3ncn(-c4ccc(C(F)(F)F)cc4)n3)cc2F)c1` [Compound J63, (Z)-1-(2-Fluoro-4-(1-(4-(trifluoromethyl)phenyl)-1H-1,2,4-triazol-3-yl)phenyl)-3-(3-(5-methyl-2-(2,2,2-trifluoroethoxy)phenyl)-4-oxothiazolidin-2-ylidene)urea], for which the pest or weed control at 50 µg/cm2 in assay [1] and in assay [2] was 50 to 100% in each case.
Take `Cc1ccc(OCCC(F)(F)F)c(N2C(=O)CS/C2=N\C(=O)Nc2ccc(-c3ncn(-c4ccc(C(F)(F)F)cc4)n3)cc2F)c1` [Compound J64, (Z)-1-(2-Fluoro-4-(1-(4-(trifluoromethyl)phenyl)-1H-1,2,4-triazol-3-yl)phenyl)-3-(3-(5-methyl-2-(3,3,3-trifluoropropoxy)phenyl)-4-oxothiazolidin-2-ylidene)urea]: the pest or weed control at 50 µg/cm2 in assay [1] and in assay [2] was 50 to 100% in each case.
`CCC(C)c1ccc(C)cc1N1C(=O)CS/C1=N\C(=O)Nc1ccc(-c2ncn(-c3ccc(C(F)(F)F)cc3)n2)cc1F` (stereo not shown) [Compound J65, (Z)-1-(3-(2-(sec-Butyl)-5-methylphenyl)-4-oxothiazolidin-2-ylidene)-3-(2-fluoro-4-(1-(4-(trifluoromethyl)phenyl)-1H-1,2,4-triazol-3-yl)phenyl)urea]: the pest or weed control at 50 µg/cm2 in assay [1] and in assay [2] was 50 to 100% each time.
For the compound `COCc1ccc(C)cc1N1C(=O)CS/C1=N\C(=O)Nc1ccc(-c2ncn(-c3ccc(OC(F)(F)F)cc3)n2)cc1C` [Compound J67, (Z)-1-(3-(2-(Methoxymethyl)-5-methylphenyl)-4-oxothiazolidin-2-ylidene)-3-(2-methyl-4-(1-(4-(trifluoromethoxy)phenyl)-1H-1,2,4-triazol-3-yl)phenyl)urea], the pest or weed control at 50 µg/cm2 in assay [1] and in assay [2] was 50 to 100% throughout.
Take `Cc1cc(-c2ncn(-c3ccc(OC(F)(F)F)cc3)n2)ccc1NC(=O)/N=C1\SCC(=O)N1c1cc(N(C)C)ccc1C(C)C` [Compound J68, (Z)-1-(3-(5-(Dimethylamino)-2-isopropylphenyl)-4-oxothiazolidin-2-ylidene)-3-(2-methyl-4-(1-(4-(trifluoromethoxy)phenyl)-1H-1,2,4-triazol-3-yl)phenyl)urea]: the pest or weed control at 50 µg/cm2 in assay [1] and in assay [2] was 50 to 100% in each case.
On to `CCN(CC)c1ccc(C(C)C)c(N2C(=O)CS/C2=N\C(=O)Nc2ccc(-c3ncn(-c4ccc(OC(F)(F)F)cc4)n3)cc2F)c1` [Compound J69, (Z)-1-(3-(5-(diethylamino)-2-isopropylphenyl)-4-oxothiazolidin-2-ylidene)-3-(2-fluoro-4-(1-(4-(trifluoromethoxy)phenyl)-1H-1,2,4-triazol-3-yl)phenyl)urea], for which the pest or weed control at 50 µg/cm2 in assay [1] and in assay [2] was 50 to 100% each time.
With `Cc1ccc(C(C)C)c(N2C(=O)CS/C2=N\C(=O)Nc2c(F)cc(-c3ncn(-c4ccc(OC(F)(F)F)cc4)n3)cc2F)c1` [Compound J78, (Z)-1-(2,6-Difluoro-4-(1-(4-(trifluoromethoxy)phenyl)-1H-1,2,4-triazol-3-yl)phenyl)-3-(3-(2-isopropyl-5-methylphenyl)-4-oxothiazolidin-2-ylidene)urea], the pest or weed control at 50 µg/cm2 in assay [1] and in assay [2] was 50 to 100% each time.
`Cc1ccc(OCC(F)(F)F)c(N2C(=O)CS/C2=N\C(=O)Nc2c(F)cc(-c3ncn(-c4ccc(OC(F)(F)F)cc4)n3)cc2F)c1` [Compound J79, (Z)-1-(2,6-Difluoro-4-(1-(4-(trifluoromethoxy)phenyl)-1H-1,2,4-triazol-3-yl)phenyl)-3-(3-(5-methyl-2-(2,2,2-trifluoroethoxy)phenyl)-4-oxothiazolidin-2-ylidene)urea]: the pest or weed control at 50 µg/cm2 in assay [1] and in assay [2] was 50 to 100% throughout.
For the compound `Cc1ccc(OCCCC(F)(F)F)c(N2C(=O)CS/C2=N\C(=O)Nc2c(F)cc(-c3ncn(-c4ccc(OC(F)(F)F)cc4)n3)cc2F)c1` [Compound J80, (Z)-1-(2,6-Difluoro-4-(1-(4-(trifluoromethoxy)phenyl)-1H-1,2,4-triazol-3-yl)phenyl)-3-(3-(5-methyl-2-(4,4,4-trifluorobutoxy)phenyl)-4-oxothiazolidin-2-ylidene)urea], the pest or weed control at 50 µg/cm2 in assay [1] and in assay [2] was 50 to 100% throughout.
Turning to `COC(C)c1ccc(C)cc1N1C(=O)CS/C1=N\C(=O)Nc1c(F)cc(-c2ncn(-c3ccc(OC(F)(F)F)cc3)n2)cc1F` (stereo not shown) [Compound J81, (Z)-1-(2,6-Difluoro-4-(1-(4-(trifluoromethoxy)phenyl)-1H-1,2,4-triazol-3-yl)phenyl)-3-(3-(2-(1-methoxyethyl)-5-methylphenyl)-4-oxothiazolidin-2-ylidene)urea], the pest or weed control at 50 µg/cm2 in assay [1] and in assay [2] was 50 to 100% each time.
For the compound `CC(C)c1ccc(N(C)C)cc1N1C(=O)CS/C1=N\C(=O)Nc1c(F)cc(-c2ncn(-c3ccc(OC(F)(F)F)cc3)n2)cc1F` [Compound J82, (Z)-1-(2,6-Difluoro-4-(1-(4-(trifluoromethoxy)phenyl)-1H-1,2,4-triazol-3-yl)phenyl)-3-(3-(5-(dimethylamino)-2-isopropylphenyl)-4-oxothiazolidin-2-ylidene)urea], the pest or weed control at 50 µg/cm2 in assay [1] and in assay [2] was 50 to 100% each time.
As to `CCc1cc(-c2ncn(-c3ccc(OC(F)(F)F)cc3)n2)ccc1NC(=O)/N=C1\SCC(=O)N1c1cc(N(C)C)ccc1C(C)C` [Compound J83, (Z)-1-(3-(5-(Dimethylamino)-2-isopropylphenyl)-4-oxothiazolidin-2-ylidene)-3-(2-ethyl-4-(1-(4-(trifluoromethoxy)phenyl)-1H-1,2,4-triazol-3-yl)phenyl)urea], the pest or weed control at 50 µg/cm2 in assay [1] and in assay [2] was 50 to 100% each time.
On to `CN(C)c1cccc(N2C(=O)CS/C2=N\C(=O)Nc2ccc(-c3ncn(-c4ccc(OC(F)(F)F)cc4)n3)cc2F)c1` [Compound J84, (Z)-1-(3-(3-(Dimethylamino)phenyl)-4-oxothiazolidin-2-ylidene)-3-(2-fluoro-4-(1-(4-(trifluoromethoxy)phenyl)-1H-1,2,4-triazol-3-yl)phenyl)urea], for which the pest or weed control at 50 µg/cm2 in assay [1] and in assay [2] was 50 to 100% each time.
Regarding `CNc1ccc(C(C)C)c(N2C(=O)CS/C2=N\C(=O)Nc2ccc(-c3ncn(-c4ccc(OC(F)(F)F)cc4)n3)cc2F)c1` [Compound J85, (Z)-1-(2-Fluoro-4-(1-(4-(trifluoromethoxy)phenyl)-1H-1,2,4-triazol-3-yl)phenyl)-3-(3-(2-isopropyl-5-(methylamino)phenyl)-4-oxothiazolidin-2-ylidene)urea], the pest or weed control at 50 µg/cm2 in assay [1] and in assay [2] was 50 to 100% throughout.
For `COc1cc(-c2ncn(-c3ccc(OC(F)(F)F)cc3)n2)ccc1NC(=O)/N=C1\SCC(=O)N1c1cc(N(C)C)ccc1C(C)C` [Compound J89, (Z)-1-(3-(5-(Dimethylamino)-2-isopropylphenyl)-4-oxothiazolidin-2-ylidene)-3-(2-methoxy-4-(1-(4-(trifluoromethoxy)phenyl)-1H-1,2,4-triazol-3-yl)phenyl)urea], the pest or weed control at 50 µg/cm2 in assay [1] and in assay [2] was 50 to 100% each time.
For `COc1cc(-c2ncn(-c3ccc(OC(F)(F)F)cc3)n2)ccc1NC(=O)/N=C1\SCC(=O)N1c1cc(C)ccc1C(C)OC` (stereo not shown) [Compound J90, (Z)-1-(2-Methoxy-4-(1-(4-(trifluoromethoxy)phenyl)-1H-1,2,4-triazol-3-yl)phenyl)-3-(3-(2-(1-methoxyethyl)-5-methylphenyl)-4-oxothiazolidin-2-ylidene)urea], the pest or weed control at 50 µg/cm2 in assay [1] and in assay [2] was 50 to 100% throughout.
For the compound `COc1cc(-c2ncn(-c3ccc(OC(F)(F)F)cc3)n2)ccc1NC(=O)/N=C1\SCC(=O)N1c1cc(C)ccc1OCCC(F)(F)F` [Compound J91, (Z)-1-(2-Methoxy-4-(1-(4-(trifluoromethoxy)phenyl)-1H-1,2,4-triazol-3-yl)phenyl)-3-(3-(5-methyl-2-(3,3,3-trifluoropropoxy)phenyl)-4-oxothiazolidin-2-ylidene)urea], the pest or weed control at 50 µg/cm2 in assay [1] and in assay [2] was 50 to 100% in each case.
As for `COc1ccc(OCCC(F)(F)F)c(N2C(=O)CS/C2=N\C(=O)Nc2ccc(-c3ncn(-c4ccc(OC(F)(F)F)cc4)n3)cc2F)c1` [Compound J92, (Z)-1-(2-Fluoro-4-(1-(4-(trifluoromethoxy)phenyl)-1H-1,2,4-triazol-3-yl)phenyl)-3-(3-(5-methoxy-2-(3,3,3-trifluoropropoxy)phenyl)-4-oxothiazolidin-2-ylidene)urea], the pest or weed control at 50 µg/cm2 in assay [1] and in assay [2] was 50 to 100% throughout.
Regarding `Cc1ccc(OCCC(F)(F)F)c(N2C(=O)CS/C2=N\C(=O)Nc2ccc(-c3ncn(-c4ccc(OC(F)(F)F)cc4)n3)cc2C(C)C)c1` [Compound J93, (Z)-1-(2-Isopropyl-4-(1-(4-(trifluoromethoxy)phenyl)-1H-1,2,4-triazol-3-yl)phenyl)-3-(3-(5-methyl-2-(3,3,3-trifluoropropoxy)phenyl)-4-oxothiazolidin-2-ylidene)urea], the pest or weed control at 50 µg/cm2 in assay [1] and in assay [2] was 50 to 100% in each case.
